Test results taken from publication PMC6161027, “In Vitro Stimulation of Multidrug Resistance-Associated Protein 2 Function Is Not Reproduced In Vivo in Rats” (Pharmaceutics, 2018).
Values joined by “and” are separate entries in the source; they are usually repeats but may differ in a detail not shown here. Identical values can stand only once. “Also recorded” adds a separate entry of the source. Counter-ions that a name gives are not always drawn. Like-named read-outs stand apart in the source and are kept apart here.

Legend:
rat Mrp2 [1] = molecular target: T1, rat Mrp2 (Rattus norvegicus, UniProt Q63120); conditions: for % Net decrease in ATP-dependent CP-I uptake in presence of bilirubin: bilirubin 10 µM, uptake with modulator alone as control, duplicate wells
T1 sequence (Q63120 whole entry): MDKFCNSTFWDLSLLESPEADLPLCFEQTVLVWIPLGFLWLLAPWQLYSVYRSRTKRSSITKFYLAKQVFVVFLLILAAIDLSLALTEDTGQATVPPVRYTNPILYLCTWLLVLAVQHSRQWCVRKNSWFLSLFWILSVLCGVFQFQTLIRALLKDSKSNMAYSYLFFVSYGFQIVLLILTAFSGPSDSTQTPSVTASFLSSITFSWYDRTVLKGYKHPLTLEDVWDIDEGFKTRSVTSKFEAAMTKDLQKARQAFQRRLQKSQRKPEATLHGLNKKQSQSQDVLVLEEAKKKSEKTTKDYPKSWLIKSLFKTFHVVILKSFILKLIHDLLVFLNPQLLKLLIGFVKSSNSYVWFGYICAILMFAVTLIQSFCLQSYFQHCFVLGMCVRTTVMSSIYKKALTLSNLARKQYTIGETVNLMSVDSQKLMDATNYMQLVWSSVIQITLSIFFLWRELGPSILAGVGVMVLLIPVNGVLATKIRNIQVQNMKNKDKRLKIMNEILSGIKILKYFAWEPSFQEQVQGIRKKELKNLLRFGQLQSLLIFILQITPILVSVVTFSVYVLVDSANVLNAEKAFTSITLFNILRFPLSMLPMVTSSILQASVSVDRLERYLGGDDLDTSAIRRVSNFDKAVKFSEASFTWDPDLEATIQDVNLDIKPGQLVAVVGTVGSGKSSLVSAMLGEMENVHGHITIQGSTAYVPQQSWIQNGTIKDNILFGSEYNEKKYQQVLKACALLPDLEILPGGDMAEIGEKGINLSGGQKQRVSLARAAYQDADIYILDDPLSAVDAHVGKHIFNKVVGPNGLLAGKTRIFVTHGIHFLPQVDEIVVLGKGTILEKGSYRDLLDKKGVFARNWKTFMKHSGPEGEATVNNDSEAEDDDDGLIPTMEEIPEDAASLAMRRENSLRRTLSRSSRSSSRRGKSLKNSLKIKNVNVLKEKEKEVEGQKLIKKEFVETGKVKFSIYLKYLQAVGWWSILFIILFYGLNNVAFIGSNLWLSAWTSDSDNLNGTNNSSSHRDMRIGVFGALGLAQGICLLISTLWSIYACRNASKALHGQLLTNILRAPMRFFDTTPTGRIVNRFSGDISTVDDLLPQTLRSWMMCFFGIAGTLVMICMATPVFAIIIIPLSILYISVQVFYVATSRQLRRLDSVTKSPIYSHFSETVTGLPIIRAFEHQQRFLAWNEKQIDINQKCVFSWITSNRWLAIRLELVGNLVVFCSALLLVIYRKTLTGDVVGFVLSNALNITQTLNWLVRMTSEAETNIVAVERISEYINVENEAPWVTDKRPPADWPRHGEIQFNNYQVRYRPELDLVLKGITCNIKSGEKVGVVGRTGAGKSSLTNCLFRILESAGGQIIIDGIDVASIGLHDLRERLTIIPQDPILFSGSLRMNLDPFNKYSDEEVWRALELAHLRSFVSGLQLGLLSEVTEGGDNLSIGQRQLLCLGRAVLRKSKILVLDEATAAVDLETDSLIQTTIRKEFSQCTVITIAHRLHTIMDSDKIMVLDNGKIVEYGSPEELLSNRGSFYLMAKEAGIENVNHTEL
Description: Figure 3 Effect of bilirubin on the transport of CP-I using rat Mrp2 vesicles in the presence and absence of modulators. Rat Mrp2 vesicles (50 µg/well) were preincubated with and without bilirubin (10 µM) and modulators for 3 min at 37 °C. % Net decrease in ATP-dependent CP-I uptake in presence of bilirubin was calculated by taking CP-I uptake values in presence of modulators as control. All data values presented as mean of single experiment performed in duplicate wells.

in vitro = conditions: tissue homogenate
[2] = rat, in vivo
[3] = Plasma and liver concentrations of modulators after i.v. infusion in rats; type: in vivo; conditions: Sprague-Dawley, rat; for Kp at 3 h: liver at terminal time point (3 h); for Cmax: plasma, iv
rat Mrp2 [4] = molecular target: T1, rat Mrp2; conditions: for effect on rat Mrp2-mediated CP-I transport in vitro: 15 min, result in words
Description: Rat Mrp2-mediated CP-I transport was measured in inside-out membrane vesicles. Mrp2 vesicle protein (50 µg/well) were preincubated with modulators at above reported concentrations at 37 °C and reaction was started by adding CP-I (5 µM) and incubated for 15 min. NP; not performed. For more on experimental details refer to Section 2.3. Dotted line represents basal level (100%) of CP-I uptake in control wells in the presence of ATP with no modulators added. All data values presented as mean and SD of single experiment performed in triplicate wells.

human MRP2 = conditions: cited from earlier work; for stimulation of CP-I transport in human MRP2 vesicles / effect on MRP2 when CP-I is used as probe substrate: result in words ref 10
Mrp2 [5] = molecular target: T2, Mrp2 (Rattus norvegicus, UniProt Q63120); assay: Biliary and renal secretion of endogenous CP-I and CP-III in bile duct cannulated rats before and after modulators; conditions: for Bile Flow: cumulative volume / total collection time, mean ± SD, three animals; for Mrp2-mediated CP-I transport in vivo (biliary clearance, cumulative amount in bile) before and after treatment: bile duct cannulated rats
T2 sequence (Q63120 whole entry): as above

Mrp2 [6] = test system: Mrp2; parameters: method as in PMID 15194559; conditions: rats ref 17; cited from earlier work
[7] = parameters: method as in PMID 11457649, PMID 9521735; conditions: humans, in presence of dapsone ref 22, 23; cited from earlier work
[8] = test system: flurbiprofen metabolism in liver microsome; parameters: method as in PMID 11457649, PMID 9521735; conditions: in presence of dapsone ref 22, 23; cited from earlier work
Mrp2 [9] = test system: Mrp2; parameters: method as in PMID 19118132; conditions: cited from earlier work
Mrp2 [10] = test system: Mrp2; parameters: method as in PMID 27964938; conditions: in the presence of metformin, plasma exposure not affected ref 9; cited from earlier work
Oatp = assay: CP-I uptake in suspended rat hepatocytes with and without rifamycin SV; type: cell-based; conditions: rifamycin SV 1 mM, CP-I 0.5 µM, 37 °C, result in words
rat Mrp2 [11] = molecular target: T1, rat Mrp2
Mrp2 [12] = molecular target: T2, Mrp2; conditions: in vivo

Compound: O=C1c2c(O)ccc(O)c2C(=O)c2c(NCCNCCO)ccc(NCCNCCO)c21 [Mitoxantrone, Mitoxantrone hydrochloride]
- % Net decrease in ATP-dependent CP-I uptake in presence of bilirubin (rat Mrp2 [1]; modulator 200 µM): 34% and 42%
- fraction unbound at 6 h, 10 µM (in vitro): 0.0003
- toxicity limiting the dose [2]: observed toxicity
- concentration at 3 h ([3]; intravenous, 6 mg/kg i.v., liver homogenate, LC-MS/MS, read-out: Liver Total Concentrations): 854 µM
- concentration at 3 h ([3]; intravenous, 15 mg/kg i.v., liver homogenate, LC-MS/MS, read-out: Liver Total Concentrations): 950 µM
- concentration at 3 h ([3]; liver (unbound), intravenous, 6 mg/kg i.v., Fu,liver x total liver concentration, read-out: Liver Unbound Concentrations): 0.26 µM
- Kp at 3 h ([3]; liver/plasma, intravenous, 6 mg/kg i.v., read-out: Liver to Plasma Ratio): 199
- Kp at 3 h ([3]; liver/plasma, intravenous, 15 mg/kg i.v., read-out: Liver to Plasma Ratio): 202
- Cmax ([3]; 6 mg/kg i.v.): 4.3 µM
- Cmax ([3]; 15 mg/kg i.v.): 4.7 µM
- concentration from which in vitro stimulation started (rat Mrp2 [4]): ≥ 1 µM
- effect on rat Mrp2-mediated CP-I transport in vitro (rat Mrp2 [4]; CP-I 5 µM): strongest stimulator; also recorded: stimulated
- concentrations giving inhibition of Mrp2 mediated CP-I transport (rat Mrp2 [4]; bell-shaped curve, higher concentrations): > 250 µM
- concentrations giving stimulation of Mrp2 mediated CP-I transport (rat Mrp2 [4]; bell-shaped curve, lower concentrations): up to 250 µM
- stimulation of CP-I transport in human MRP2 vesicles (human MRP2): significant stimulation
- Bile Flow (Mrp2 [5]; after mitoxantrone 6 mg/kg i.v.): 1.05 ± 0.11 mL/h
- Bile Flow (Mrp2 [5]; after mitoxantrone 15 mg/kg i.v.): 1.38 ± 0.56 mL/h
- Mrp2-mediated CP-I transport in vivo (biliary clearance, cumulative amount in bile) before and after treatment (Mrp2 [5]; result in words): no significant difference
- biliary excretion of CP-I and III (Mrp2 [5]; mitoxantrone 6 mg/kg, between 0.25 and 0.5 h, result in words): significant increase
- biliary secretion of CP-I (Mrp2 [5]; mitoxantrone 15 mg/kg, from 0.33 to 1.25 h, result in words): decreased

Compound: CC(=O)[C@H]1CC[C@H]2[C@@H]3CCC4=CC(=O)CC[C@]4(C)[C@H]3CC[C@]12C [Progesterone, progesterone]
- % Net decrease in ATP-dependent CP-I uptake in presence of bilirubin (rat Mrp2 [1]; modulator 100 µM): 17% and 12%
- fraction unbound at 6 h, 10 µM (in vitro): 0.0094
- concentration at 2 h ([3]; intravenous, 1 mg/kg i.v., liver homogenate, LC-MS/MS, read-out: Liver Total Concentrations): 197 µM
- concentration at 2 h ([3]; liver (unbound), intravenous, 1 mg/kg i.v., Fu,liver x total liver concentration, read-out: Liver Unbound Concentrations): 1.86 µM
- Kp at 2 h ([3]; liver/plasma, intravenous, 1 mg/kg i.v., liver at terminal time point (2 h), read-out: Liver to Plasma Ratio): 1.2
- Cmax ([3]; 1 mg/kg i.v.): 165 µM
- effect on rat Mrp2-mediated CP-I transport in vitro (rat Mrp2 [4]; CP-I 5 µM): stimulated
- stimulation of Mrp2 mediated transport of CP-I (rat Mrp2 [4]; modulator 1 µM, CP-I 5 µM): > 1.5 fold
- stimulation of CP-I transport in human MRP2 vesicles (human MRP2): significant stimulation
- Bile Flow (Mrp2 [5]; after progesterone 1 mg/kg i.v.): 1.62 ± 0.39 mL/h
- Mrp2-mediated CP-I transport in vivo (biliary clearance, cumulative amount in bile) before and after treatment (Mrp2 [5]; result in words): did not stimulate
- biliary secretion of CP-III (Mrp2 [5]; progesterone 1 mg/kg, from 0.17 to 1.5 h, result in words): significant decrease

Compound: CCc1oc2ccccc2c1C(=O)c1cc(Br)c(O)c(Br)c1 [benzbromarone]
- effect on MRP2 when CP-I is used as probe substrate (human MRP2): inhibitors

Compound: CC1(C)S[C@@H]2[C@H](NC(=O)Cc3ccccc3)C(=O)N2[C@H]1C(=O)O [benzyl penicillin]
- transient enhancement of biliary clearance of glutathione (GSH) (Mrp2 [6]): about four-fold

Compound: C=CC1=C(C)/C(=C/c2[nH]c(Cc3[nH]c(/C=C4\NC(=O)C(C)=C4C=C)c(C)c3CCC(=O)O)c(CCC(=O)O)c2C)NC1=O [bilirubin]
- effect on in vitro stimulation of Mrp2-mediated CP-I transport (rat Mrp2 [1]; 10 µM, result in words): suppressed

Compound: Nc1ccc(S(=O)(=O)c2ccc(N)cc2)cc1 [dapsone]
- increase in flurbiprofen clearance [7]: 10%
- stimulation of flurbiprofen metabolism [8]: two-fold

Compound: COc1ccc2c(c1)c(CC(=O)O)c(C)n2C(=O)c1ccc(Cl)cc1 [indomethacin]
- decrease of E17βG half-life (Mrp2 [9]; rats ref 16): 40%
- effect on E17βG biliary clearance (Mrp2 [9]; rats, result in words ref 16): increases
- effect on MRP2 when CP-I is used as probe substrate (human MRP2): inhibitors

Compound: CN(C)C(=N)N=C(N)N [metformin]
- increase of atorvastatin liver concentration (Mrp2 [10]): 1.64 fold

Compound: CO[C@H]1/C=C/O[C@@]2(C)Oc3c(C)c(O)c4c(O)c(cc(O)c4c3C2=O)NC(=O)/C(C)=C\C=C\[C@H](C)[C@H](O)[C@@H](C)[C@@H](O)[C@@H](C)[C@H](OC(C)=O)[C@@H]1C [rifamycin, rifamycin SV]
- effect on CP-I uptake in isolated rat hepatocytes (Oatp): rifamycin sensitive

Compound: coproporphyrin-I [CP-I]
- Km (rat Mrp2 [11]): 15 ± 6 µM
- apparent Vmax (rat Mrp2 [11]; CP-I uptake, rat Mrp2 membrane vesicles, 37 °C, 15 min, mean ± SD): 161 ± 20 pmol/min/mg protein
- ATP over AMP ratio of CP-I uptake (rat Mrp2 [11]; rat Mrp2 membrane vesicles): 23
- average biliary clearance relative to CP-III (Mrp2 [12]): four-fold higher
- basal level excreted in rat bile in 2 h (Mrp2 [12]): about 600 pmoles
- Km (human MRP2): 7.7 µM

Compound: coproporphyrin-III [CP-III]
- urinary clearance relative to CP-I (Mrp2 [5]; control experiments): three-fold higher
- basal level excreted in rat bile in 2 h (Mrp2 [5]; endogenous, no modulator): ~1200 pmol
- plasma AUC (0–2 h), basal (Mrp2 [5]; endogenous, no modulator): ~9.5 nM·h
- basal plasma levels relative to CP-I (Mrp2 [5]; rats): three-four times higher
